Assays:
[1] = target: T1, binding of TSP-1 protein to CD36, a TSP-1 receptor protein (Homo sapiens, UniProt P07996); assay: ELISA: blocking of CD36 binding to TSP-1 protein
T1 construct: purchased novoprotein (TSP-1); R&D Systems (Fc-tagged CD36) CU45 (TSP-1); 1955-CD-050 (CD36-Fc)
Protocol: ELISA assay was performed to detect the ability of the polypeptides to block the binding of TSP-1 protein to CD36, a TSP-1 receptor protein. TSP-1 protein (novoprotein, Catalog No. CU45) was diluted to 2 μg/mL using 100 mM carbonate buffer and added to sample wells (100 μL/well) of a 96-well ELISA plate (Thermo, Catalog No. 437111), and incubated overnight at 4° C.; after washing the plate twice using 1×PBST wash solution, 200 μL of 1.5% BSA (Sigma, Catalog No. B2064) was added to each well, and incubated at 37° C. for 2 h; after washing the plate 3 times using 1×PBST wash solution, the analytes were added (100 μL/well, 3 replicate wells; for the control group, 0.25 μg/mL of Fc-tagged CD36 protein (R&D Systems, Catalog No. 1955-CD-050); and for the polypeptide-treated groups, a mixture containing Fc-tagged CD36 protein and polypeptide at final concentrations of 0.25 μg/mL and 100 μM, respectively), and incubated at 37° C. for 3 h. After washing the plate 5 times using 1×PBST wash solution, a 1:500 dilution solution of FITC-labeled anti-Fc-tagged antibody (Beyotime, Catalog No. A0556) was added, and incubated for 1 h at 37° C.; after washing the plate 5 times using 1×PBST wash solution, a multifunctional ELISA instrument (TECAN, model: Infinite 200 Pro) was used to detect the intensity of FITC fluorescence signal in each sample well. The ability of the polypeptides to block CD36 binding to TSP-1 protein (Table 2-1) was assessed by calculating the ratio of the fluorescence signal from the polypeptide-treated groups to that of the control group, allowing for the determination of the blocking rate of the polypeptides in inhibiting CD36 binding to TSP-1 protein, i.e., (fluorescence signal of the control group-fluorescence signal of the polypeptide-treated group)/fluorescence signal of the control group×100%. Based on the blocking rate results obtained at the single concentration and on the polypeptide molecule properties, the preferred polypeptide molecules were assayed for concentration dependence (at 0 μM, 0.5 μM, 1 μM, 5 μM, 10 μM, and 100 μM), and IC50 values of the polypeptides for blocking CD36 binding to TSP-1 protein were determined to further assess the abilities of the preferred polypeptide molecules to block the binding of CD36 to TSP-1 (Table 2-2).

[2] = tested on: human liver cancer HepG2/C3A cells; assay: Transwell tumor cell migration, co-culture with PMA-differentiated THP-1 cells; format: cell-based; settings: 100 μM polypeptide 48 h, co-culture 24 h; negative control group = 100.00
Protocol: (§1) This Example was to assess the effects of polypeptides on the migration abilities of different tumor cells. The experiment was performed using transwell nested chambers (membrane pore size of 8 μm), where THP-1 cells were inoculated in the lower chamber and treated with 300 nM PMA (Sigma, Catalog No.P1585) for differentiation and chamber-wall adherence, and then treated with 100 μM polypeptide (in the negative control, an equal volume of solvent was added) for 48 hours. The upper chamber was inoculated with tumor cells, human lung adenocarcinoma A549 cells (American Typical Culture Collection, ATCC, CCL-18), and co-cultured for 24 hours; or inoculated with human liver cancer HepG2/C3A cells (ATCC, CRL-10741), and co-cultured for 24 h; or inoculated with human breast cancer MCF7 cells (ATCC, HTB-22), and co-cultured for 48 h. After that, the upper chamber was taken out, fixed with 70% ethanol for 10 min and washed, then stained with Giemsa staining solution (Beyotime, Catalog No.C0131) for 45 min. After washing with double distilled water 2-3 times, unmigrated cells were wiped off the upper layer with a cotton swab. After the chamber was dried, it was observed under a microscope, and five different fields of view under a 100× magnification were randomly selected for counting and statistics. The polypeptides had significant inhibitory effects on the migratory abilities of human lung adenocarcinoma cells, human liver cancer cells, and human breast cancer cells.

[3] = tested on: human lung adenocarcinoma A549 cells; assay: as above; format: cell-based; settings: 100 μM polypeptide 48 h, co-culture 24 h; negative control group = 100.00
Protocol: as §1

[4] = tested on: human breast cancer MCF7 cells; assay: as above; format: cell-based; settings: 100 μM polypeptide 48 h, co-culture 48 h; negative control group = 100.00
Protocol: as §1

P-Smad2/3 = P-Smad2/3 content in lung tissue, BLM mouse fibrosis model; format: in vivo; settings: single intratracheal dose 3 mg/kg on Day 7, lung 24 h later; BLM model group = 100.00
Description: This example aimed to evaluate the inhibitory effect of polypeptides on the TGF-β downstream signaling pathway during fibrosis progression. TGF-β intracellular signaling relies on the phosphorylation events of Smad family proteins. The increase in Smad2/3 phosphorylation levels is an important indicator that signal transduction has occurred in the TGF-β signaling pathway.
In this example, 6- to 8-week-old male C57/6J mice weighing 18-20 g were used as subjects for the study. The experimental animals were randomized into groups, eight animals in each group. In this example, intratracheal administration was performed using an aerosol intratracheal metered dosing applicator during both the modeling and drug delivery processes, as described in Example 4. On the day of modeling (Day 1), the experimental animals were randomly assigned to groups and administered a 0.7 USP/kg dose of bleomycin solution (HanHui Pharmaceutical, Batch No. 20080511) via the tracheal route to induce the model. On Day 7, each peptide-treated group received a single intratracheal dose of peptide drug at a dosage of 3 mg/kg, while the BLM model group was given an equal volume of solvent (saline) as a control. Twenty-four hours after drug administration, the animals were dissected, and the lung tissues were collected and frozen in liquid nitrogen for future use. Total protein from the lung tissue was extracted after grinding the tissue in liquid nitrogen, and the total P-Smad2/3 content in the tissue was measured by using P-Smad2/3 ELISA kit (CST, Catalog No. 12001C). The ratio of the P-Smad2/3 content between the peptide-treated group and the model group was calculated to evaluate the effect of the peptide on TGFβ signaling.

active TGF-β = assay: Active TGF-β level in lung tissue, bleomycin (BLM) mouse lung fibrosis model; format: in vivo; settings: single intratracheal dose 3 mg/kg on Day 7, lung 24 h later; BLM model group = 100.00
Description: This Example was to evaluate the inhibitory effect of polypeptides on active TGF-β level during the progression of fibrotic disease. In this Example, a mouse lung fibrosis model induced by bleomycin (BLM) was used. The BLM animal model offers advantages, including a close mimicry of the pathological features of the primary disease, ease of use, and good reproducibility. It is the most representative model for studying the mechanisms of fibrosis and is recommended for evaluating drug efficacy.
In this Example, 6 to 8-week-old male C57/6J mice weighing 18-20 g were used as subjects for the study. The experimental animals were randomized into groups, 8 animals in each group, and the expressions of pro-fibrotic factors were detected at the endpoint of the experiment (Day 8) in this model. In this example, an aerosol intratracheal metered dosing applicator (Yuyan, model YAN30012) was utilized for intratracheal administration during the modeling and drug delivery processes. The dosing was performed as follows (An Official American Thoracic Society Workshop Report: Use of Animal Models for the Preclinical Assessment of Potential Therapies for Pulmonary Fibrosis, Am J Respir Cell Mol Biol Vol 56, Iss 5, pp 667-679, May 2017): The experimental animals were anesthetized with aerosolized isoflurane (RWD, lot no. 22041701) using a small animal anesthesia machine (RWD, model R500IE). Animals in the appropriate anesthetic state were positioned supine with heads facing up and bodies tilted on an operating platform (tilted at approximately) 60°, secured by their incisors. The practitioner gently lifted the tongue with tissue forceps in the right hand, pushing it outward and upward to open the animal's lower jaw. Holding the laryngoscope (Yuyan, model SR310-RW) in the left hand, the practitioner slid its anterior leaf-shaped blade along the midline of the tongue into the oral cavity until reaching the glottis, gently pressing the body and root of the tongue upward. The needle of the drug applicator was then inserted through the mouth into the glottis alongside the laryngoscope, and 50 μL of liquid was quickly injected. On the day of modeling (Day 1), the experimental animals were randomly assigned to groups and administered a 0.7 USP/kg dose of bleomycin solution (HanHui Pharmaceutical, Batch No. 20080511) via the tracheal route to induce the model. On Day 7, each peptide-treated group received a single intratracheal dose of 50 μL peptide drug (at a dosage of 3 mg/kg), while the model group was given an equal volume of solvent (saline, Kelong, Batch No. L221062501) as a control. Twenty-four hours after drug administration, the animals were dissected to collect lung tissue, which was ground in liquid nitrogen to extract total protein from the lung tissue. The active TGF-β content in the lung tissue of mice from each group was measured using the TGF-β ELISA kit (BOSTER, catalog number EK0515). The ratio of active TGF-β content between the peptide-treated group and the model group was calculated to evaluate the effect of the peptide on active TGF-β level.

[5] = tested on: TSP-1-dependent TGF-β activation; assay: TSP-1-dependent TGF-β activation in PMA-differentiated THP-1 cells with 293-TGFβ Res reporter cells; format: cell-based; settings: 100 μM polypeptide, 24 h; ratio to negative control group (1.00)
Protocol: In this Example, the inhibitory effects of the polypeptides on TSP-1-dependent TGF-β activation were detected using a model based on a high TSP-1 expressing cell. In the assay, THP-1 cells (American Typical Culture Collection, ATCC, TIB-20) were induced by phorbol ester (Phorbol 12-myristate 13-acetate, PMA) (Sigma, Catalog No. P1585) and differentiated into macrophage-like cells with distinct macrophage expression profiles.
The experiment was performed as follows: THP-1 cells were inoculated in a 96-well plate, and treated with 300 nM PMA for differentiation and adherence to form macrophage-like cells. 100 μM polypeptide was added (For the negative control group, an equal volume of PBS (the solvent for the polypeptide) was added, while the positive control group received an equal concentration of the polypeptide shown in SEQ ID NO: 50.) The cells were treated for 24 hours, and then a 293 reporter cell strain, 293-TGFβ Res cell strain (novoprotein, Catalog No. XCC03-1), was added for detecting TGF-β activity, and co-cultivated for 24 hours. Bio-Lite Luciferase Assay lysate comprising fluorescent substrate (Vazyme, Catalog No. DD1201-01) was added, and the fluorescent intensity was detected using a multifunctional microplate reader (TECAN, model Infinite 200 Pro). The inhibitory effect of the polypeptide on TGF-β activation was assessed by calculating the ratio of the fluorescence signal from the polypeptide-treated groups to that of the negative control group.

[6] = tested on: mouse lung fibrosis model induced by bleomycin (BLM); assay: Inflammatory and fibrotic pathology (HE, Masson's trichrome) in BLM mouse fibrosis model; format: in vivo; parameters: scale not given here
Protocol: This Example was to assess the inhibitory effect of polypeptides on fibrotic pathology. 6- to 8-week-old male C57/6J mice weighing 18-20 g were used as subjects for the study. The experimental animals were randomized into groups, 6 animals in each group. On the day of modeling (Day 1), a single dose of 0.7 USP/kg of BLM solution was administered via the tracheal route to the BLM group and each peptide-treated group to induce the model. The negative control group received an equal volume of saline. Treatment dosing started on Day 8. Each peptide-treated group received the peptide drug intratracheally at a dosage of 3 mg/kg, while the positive control group received the peptide of SEQ ID NO: 50 at the same dosage, and the administration frequency was twice a week, with a total of 4 administrations. The BLM model group and the negative control group received an equal volume of solvent (saline) as a control. The procedure followed that described in Example 4.
On Day 21, the lung tissues were dissected, washed with saline to remove blood stains, and dried with gauze. Histopathological analysis was then performed on the dissected lung tissues. The lung tissues were perfused with 0.5 mL of paraformaldehyde via the trachea and placed in 4 mL of paraformaldehyde. A small amount of gauze was added to ensure the lung tissues were completely immersed in the fixative solution. The tissues were fixed for more than 24 hours. One lobe of the left lung and four lobes of the right lung were trimmed to the maximum coronal plane, placed in an embedding cassette, dehydrated overnight, and then paraffin-embedded to make 3 μm sections. An autostainer (Leica, model ST5010) was used for Hematoxylin (Herst, lot no. 201905)-Eosin (Chron, lot no.2018070301) (HE) staining, and MASSON'S trichrome (Celestineblue, Chron, lot no. MKCH8129; Aniline blue, Yuanye, lot no. H70J11S115483; Ponceau, Sigma, lot no. SHBM2047) staining. After mounting the sections, they were scanned using a digital panoramic scanner (Zhiyue, model WS-10). For each lung lobe, ≤10 visual fields were captured under a 20× magnification. The severity of inflammation and the severity of fibrosis were assessed using HE staining and Masson's trichrome staining, respectively, to evaluate the inhibitory effects of the polypeptides on inflammatory infiltration and fibrotic deposition at pathological fibrotic sites.

[7] = 100 μM polypeptide, 0.25 μg/mL Fc-tagged CD36, blocking of CD36 binding to TSP-1

T1 sequence (P07996 19-1170): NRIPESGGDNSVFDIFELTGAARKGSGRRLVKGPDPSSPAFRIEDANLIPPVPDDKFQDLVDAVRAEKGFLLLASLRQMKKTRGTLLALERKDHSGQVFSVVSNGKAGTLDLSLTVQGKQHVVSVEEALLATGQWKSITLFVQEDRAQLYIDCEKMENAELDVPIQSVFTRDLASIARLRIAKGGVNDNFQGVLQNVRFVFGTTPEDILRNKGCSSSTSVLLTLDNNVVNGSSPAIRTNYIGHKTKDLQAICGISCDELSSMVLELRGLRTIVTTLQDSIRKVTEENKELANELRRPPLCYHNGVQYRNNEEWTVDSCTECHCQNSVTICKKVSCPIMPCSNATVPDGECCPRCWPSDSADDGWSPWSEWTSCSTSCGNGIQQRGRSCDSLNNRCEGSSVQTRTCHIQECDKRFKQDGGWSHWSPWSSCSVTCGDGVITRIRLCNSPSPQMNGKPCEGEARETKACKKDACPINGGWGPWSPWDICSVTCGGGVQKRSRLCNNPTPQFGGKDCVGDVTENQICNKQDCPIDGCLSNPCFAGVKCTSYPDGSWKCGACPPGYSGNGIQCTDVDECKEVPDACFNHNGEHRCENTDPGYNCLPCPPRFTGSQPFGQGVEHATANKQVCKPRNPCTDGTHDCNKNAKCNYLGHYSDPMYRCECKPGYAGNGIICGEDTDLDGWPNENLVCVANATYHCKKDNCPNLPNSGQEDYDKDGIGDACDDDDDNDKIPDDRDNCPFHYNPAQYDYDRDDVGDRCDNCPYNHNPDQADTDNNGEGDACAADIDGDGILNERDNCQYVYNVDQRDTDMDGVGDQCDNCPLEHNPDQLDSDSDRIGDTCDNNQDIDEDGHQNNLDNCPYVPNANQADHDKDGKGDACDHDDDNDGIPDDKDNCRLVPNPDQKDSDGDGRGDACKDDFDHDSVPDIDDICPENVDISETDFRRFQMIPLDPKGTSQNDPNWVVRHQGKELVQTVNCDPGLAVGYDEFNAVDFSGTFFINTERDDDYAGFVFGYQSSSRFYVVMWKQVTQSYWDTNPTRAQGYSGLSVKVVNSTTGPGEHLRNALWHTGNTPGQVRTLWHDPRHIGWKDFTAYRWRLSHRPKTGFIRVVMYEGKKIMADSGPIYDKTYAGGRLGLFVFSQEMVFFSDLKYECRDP

Blocking rate (Mean, %) [1, 7]	inhibition at 100 µM ([1]; 3 h, 100 μM polypeptide, 0.25 μg/mL Fc-tagged CD36, blocking of CD36 binding to TSP-1, read-out: Blocking rate (Mean, %))	IC50 ([1]; concentrations 0-100 μM)	Substance	HEPG2/C3A migration Mean (%) [2]	A549 migration Mean (%) [3]	MCF7 migration Mean (%) [4]	P-Smad2/3 content in lung tissue, ratio to model group, Mean(%) (P-Smad2/3)	active TGF-β content in lung tissue, ratio to model group, Mean(%) (active TGF-β)	Mean (relative fluorescence intensity) [5]	Inflammatory score Mean ([6]; 3 mg/kg intratracheal twice weekly x4 from Day 8, Day 21, HE staining, BLM model 2.25, negative control 0.36)	Fibrosis score Mean ([6]; 3 mg/kg intratracheal twice weekly x4 from Day 8, Day 21, Masson's trichrome, BLM model 3.25, negative control 1.01)
15.07%	–	–	Ac-Gln-Asp-Ala-Glu-Asp-Asn-NH2 (Ac-QDAEDN-NH2) [SEQ ID NO: 05]	74.72%	63.92%	42.55%	72.35%	74.15%	–	–	–
16.89%	–	–	Ac-Thr-Gln-Asp-Ala-Glu-Asp-NH2 (Ac-TQDAED-NH2) [SEQ ID NO: 04]	81.13%	57.90%	62.78%	67.91%	74.10%	–	–	–
–	23.4%	10.6 µM	H-YRVRFLAKENVTQDAEDN-OH [SEQ ID NO: 50, Tyr-Arg-Val-Arg-Phe-Leu-Ala-Lys-Glu-Asn-Val-Thr-Gln-Asp-Ala-Glu-Asp-Asn, reference compound]	–	–	–	–	–	0.84	1.98	2.81

Reference: patent publication US20250388623A1, “PEPTIDE INHIBITOR AND USE THEREOF” (CHENGDU BRILLIANT INSPIRATION BIOTHERAPEUTICS CO., LTD, priority 2022, published 2025)
